Results on 1 molecule are retold here after PMC6433232, “Targeting mitochondria in cancer therapy could provide a basis for the selective anti-cancer activity” (PLoS ONE, 2019).

Structures are written as SMILES.

In data set [1] the test system is chemotherapy resistant prostate carcinoma cells. Briefly: Combined treatment with ATO, docetaxel, MDV3100, prostate cancer cells. As to conditions: NSC130362 10 μM 2 h. Type of data set: cell-based. The protocol: Fig 3 Combined treatment of NSC130362 with ATO, docetaxel, and MDV3100 against prostate cancer cells. Cells were pre-incubated with NSC130362 (10 μM) for 2 h followed by addition of drugs (10 μM) and incubation for an additional 24 h. […] The first bar in the treatment of each cell line is NSC130362 alone. *, P<0.05.

For another data set, the target named is T1, human GAPDH enzyme (Homo sapiens, UniProt P04406).
T1 construct: endogenous in cells; host or cells: MIA PaCa-2 cells
In words: GAPDH activity assay in MIA PaCa-2 cells. Type of data set: cell-based. As to conditions: 2 h, read-out: GAPDH, enzyme residual activity as compared to DMSO-treated sample. Here is the method: Cells were incubated for 2 h with either compounds (30 μM) or DMSO in a 6-well plate. Next, cells were collected in 200 μl of PBS and disrupted by sonication. Insoluble material was removed by centrifugation. The level of GAPDH activity was determined by GAPDH activity assay kit (BioVision).
As a final step, we evaluated the inhibitory activity of the selected compounds against human GAPDH enzyme in a cell-based assay using MIA PaCa-2 cells (Table 1). Cells were pre-incubated with compounds for 2 h at 37°C followed by cell lysis using sonication and GAPDH activity assay. The ability of compounds to inhibit GAPDH was expressed as percentage of GAPDH residual activity with respect to DMSO-treated cells. […] Similar to the GSR activity assay, only two of the most toxic compounds 31 and 32, were able to inhibit GAPDH by 95 and 97%, respectively.

The test system of data set [2] is Recombinant NADH/NADPH dehydrogenase. In words: NADH/NADPH dehydrogenase-mediated ROS generation assay. It counts as biochemical. The settings on record: 30 μM, 4 h at 37°C. The protocol: Recombinant NADH/NADPH dehydrogenase (0.5 units/well) in a 96-well plate was incubated in 100 μl of the assay buffer (50 mM potassium phosphate buffer, pH 7.5 supplemented with 1 mM EDTA) containing NADPH (3 μM) and superoxide dismutase (SOD) (100 units/well) with and without compound (30 μM) for 4 h at 37°C. At the end of incubation, the level of hydrogen peroxide was measured using a Hydrogen Peroxide Assay kit (Cayman). Control samples were without NADH/NADPH dehydrogenase. The rate of NADH/NADPH dehydrogenase- and compound-mediated ROS production was determined by subtracting values that were obtained in the absence of NADPH dehydrogenase. One unit of NADH/NADPH dehydrogenase was defined as the amount of enzyme required to reduce 1.0 μmole cytochrome C per min/mg in the presence of menadione substrate at 37°C. One unit of SOD was defined as the amount of enzyme required to inhibit reduction of cytochrome C by 50% in a coupled system with xanthine oxidase at pH 7.8 at 25°C in a 3.0 mL reaction volume. Xanthine oxidase concentration should produce an initial ΔA550 of 0.025 ± 0.005 per min.
As the next step, we examined the capability of the selected compounds to generate ROS in the presence or absence of NADH/NADPH dehydrogenase (Table 1). ROS can be generated by NADH/NADPH-dehydrogenase via the one electron reduction of a quinone ring of 1,4-NQs. Unstable half-reduced quinones (semiquinones) transfer electrons to molecular oxygen, thus generating superoxide anion radicals (O2^●-), which are converted by SOD to hydrogen peroxide. We believe that our assay measuring compound’s ability to generate H2O2 in the presence or absence of NADH/NADPH dehydrogenase more closely resembles conditions inside the cell than the assay designed to measure compound’s redox potential values. […] To determine the ability of compounds to induce ROS, compounds were incubated for 4 h at 37°C with and without NADH/NADPH-dehydrogenase in the presence of NADPH as an electron donor and SOD to convert generated superoxide radicals into hydrogen peroxide. At the end of incubation, 10-acetyl-3,7-dihydroxyphenoxazine (ADHP) and horseradish peroxidase (HRP) were added to the reaction and the level of HRP-mediated formation of the fluorogenic product, resorufin, was measured on a plate reader. ROS production was detected in reactions with either the toxic or non-toxic compounds.

In data set [3] the test system is PANC1 pancreatic carcinoma cells. In words: Combined treatment with pancreatic cancer drugs, PANC1 cells. It counts as cell-based, Human. As to conditions: NSC130362 10 μM 2 h, then drugs 10 μM 24 h. The protocol: (§1) Fig 2 Combined treatment of NSC130362 with pancreatic cancer drugs against PANC1 and YAPC cells. Cells were pre-incubated with NSC130362 (10 μM) for 2 h followed by addition of drugs (10 μM) and incubation for an additional 24 h. […] The first bar is NSC130362 alone. *, P<0.05.

For data set [4] the following is noted: in words; cited from earlier work.
Data set [5] has as its system YAPC pancreatic carcinoma cells. Briefly: Combined treatment with pancreatic cancer drugs, YAPC cells. Type of data set: cell-based, Human. The settings on record: NSC130362 10 μM 2 h, then drugs 10 μM 24 h. The protocol:
as §1

For data set [6] the following is noted: in words; cited from earlier work. This is another data set of the same source.
The nature of data set [7]: Distribution coefficient LogD. The settings on record: octanol/water, pH 7.4; read-out: LogD, pH = 7.4. It counts as physicochemical. An excerpt:
We conclude that the analysis of the octanol-water partitioning is not sufficient to establish a link between degree of lipophilicity and biological activities of the selected compounds.

T1 sequence (P04406 whole entry): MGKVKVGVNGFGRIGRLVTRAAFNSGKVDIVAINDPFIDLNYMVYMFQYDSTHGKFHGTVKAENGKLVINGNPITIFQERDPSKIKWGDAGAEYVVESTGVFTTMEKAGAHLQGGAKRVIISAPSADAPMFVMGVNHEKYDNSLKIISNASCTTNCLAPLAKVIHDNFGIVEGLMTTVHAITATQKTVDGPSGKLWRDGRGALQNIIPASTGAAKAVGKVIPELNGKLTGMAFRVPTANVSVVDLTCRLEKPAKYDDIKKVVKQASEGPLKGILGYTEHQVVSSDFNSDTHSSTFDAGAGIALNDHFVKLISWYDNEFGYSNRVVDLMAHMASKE

`O=C1C(Cl)=C(NCCO)C(=O)c2ccccc21` [compound 17]: the “potentiation of docetaxel-induced cytotoxicity” value in data set [1] (then docetaxel 10 μM 24 h) was “potentiated docetaxel-induced cytotoxicity, but to a lesser extent”. Moreover, in data set [1] (then drugs 10 μM 24 h), the “potentiation of ATO or MDV3100 effect on cell viability” value was “efficiently potentiated the effect on cell viability of either ATO or MDV3100”. Moreover, the remaining activity at 30 µM on human GAPDH enzyme was 89%. In data set [2] (absence of NADH/NADPH dehydrogenase), the “H2O2 generation, NADH/NADPH dehydrogenase -” value worked out at 2.6 µM. Further, the “H2O2 generation, NADH/NADPH dehydrogenase +” value in data set [2] (presence of NADH/NADPH dehydrogenase) is 4.8 µM. Also, the “effect on apoptosis induction by pancreatic cancer drugs, PANC1” value in data set [3] was “significantly increased the ability of all tested pancreatic cancer drugs”. The “anti-tumor activity in vivo” value in data set [4] is listed as “demonstrated anti-tumor activity in vivo”. Moreover, the “effect on apoptosis induction by pancreatic cancer drugs, YAPC” value in data set [5] is listed as “significantly increased the ability of all tested pancreatic cancer drugs”. Also, the “half-life in the mouse bloodstream” value in data set [6] was “short half-life”. Further, the logD in data set [7] turned out to be 1.12.

What is called logD is the decadic logarithm of the distribution of all forms, ionised or not, between an organic phase and buffer at a given pH.
